Assay results: patent US7074605B2 (The Curators of the University of Missouri, priority 1997, dated 2006)

Target: Clostridium perfringens α-N-acetylgalactosaminidase (Clostridium perfringens, UniProt I1SB20)
Format: biochemical

Chain of Clostridium perfringens α-N-acetylgalactosaminidase (I1SB20 1-629 limits assumed): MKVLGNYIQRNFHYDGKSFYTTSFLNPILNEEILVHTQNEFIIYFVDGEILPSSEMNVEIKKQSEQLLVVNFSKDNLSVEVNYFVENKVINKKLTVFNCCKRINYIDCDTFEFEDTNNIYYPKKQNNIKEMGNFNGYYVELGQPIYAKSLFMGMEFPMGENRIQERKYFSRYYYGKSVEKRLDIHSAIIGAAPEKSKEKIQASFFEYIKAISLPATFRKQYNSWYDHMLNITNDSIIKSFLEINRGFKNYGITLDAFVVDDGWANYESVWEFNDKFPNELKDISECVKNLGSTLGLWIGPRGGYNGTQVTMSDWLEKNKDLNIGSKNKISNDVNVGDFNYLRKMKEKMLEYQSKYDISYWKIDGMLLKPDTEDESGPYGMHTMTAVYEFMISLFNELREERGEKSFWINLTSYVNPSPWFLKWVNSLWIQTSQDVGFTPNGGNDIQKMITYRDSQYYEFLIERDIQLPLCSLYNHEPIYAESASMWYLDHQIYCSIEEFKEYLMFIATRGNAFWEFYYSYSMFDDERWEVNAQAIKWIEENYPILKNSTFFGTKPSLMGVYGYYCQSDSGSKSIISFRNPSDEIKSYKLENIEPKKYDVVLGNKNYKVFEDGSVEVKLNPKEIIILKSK

Which Activity does the source give for CC(=O)N[C@H]1[C@H](Oc2ccc([N+](=O)[O-])cc2)O[C@H](CO)[C@@H](O)[C@@H]1O [PNP-N-acetyl-β-D-glucosaminide] here?
Its Activity is <0.001 U/ml.

Which Activity does the source give for C[C@@H]1O[C@H](Oc2ccc([N+](=O)[O-])cc2)[C@@H](O)[C@H](O)[C@@H]1O [PNP-β-L-fucopyranoside] here?
The Activity was <0.001 U/ml.

For Cc1cc(=O)oc2cc(O[C@@H]3O[C@H](CO)[C@H](O)[C@H](O)[C@H]3O)ccc12 [4MU-α-D-galactopyranoside], which Activity is on record?
The Activity was <0.001 U/ml.

With O=[N+]([O-])c1ccc(O[C@@H]2OC[C@H](O)[C@H](O)[C@H]2O)cc1 [PNP-α-L-arabinopyranoside] as the compound, how does the Activity read?
The Activity was <0.001 U/ml.

With C[C@@H]1O[C@@H](Oc2ccc([N+](=O)[O-])cc2)[C@@H](O)[C@H](O)[C@@H]1O [PNP-α-L-fucopyranoside] as the compound, how does the Activity read?
The Activity was <0.001 U/ml.

O=[N+]([O-])c1ccc(O[C@@H]2O[C@H](CO)[C@H](O)[C@H](O)[C@H]2O)cc1 [PNP-β-D-galactopyranoside] was tested. Which Activity did it give?
The Activity was <0.001 U/ml.

For O=[N+]([O-])c1ccc(O[C@H]2O[C@H](CO)[C@H](O)[C@H](O)[C@H]2O)cc1 [PNP-α-D-galactopyranoside], which Activity is on record?
Its Activity is <0.001 U/ml.

CC(=O)N[C@H]1[C@@H](Oc2ccc([N+](=O)[O-])cc2)O[C@H](CO)[C@H](O)[C@@H]1O [PNP-N-acetyl-α-D-galactosaminide] was tested. Which Activity did it give?
The Activity was 0.334 U/ml.

CC(=O)NC1C(O)CC(Oc2ccc3c(C)cc(=O)oc3c2)(C(=O)O)OC1C(O)C(O)CO (stereo not drawn) [4MU-N-acetyl-α-neuraminic acid] was tested. Which Activity did it give?
Its Activity is <0.001 U/ml.

For CC(=O)N[C@H]1[C@H](Oc2ccc([N+](=O)[O-])cc2)O[C@H](CO)[C@H](O)[C@@H]1O [PNP-N-acetyl-β-D-galactosaminide], which Activity is on record?
The Activity was <0.001 U/ml.

Which Activity does the source give for O=[N+]([O-])c1ccc(O[C@H]2O[C@H](CO)[C@@H](O)[C@H](O)[C@H]2O)cc1 [PNP-α-D-glucopyranoside] here?
Its Activity is <0.001 U/ml.

For CC(=O)N[C@H]1[C@@H](Oc2ccc([N+](=O)[O-])cc2)O[C@H](CO)[C@@H](O)[C@@H]1O [PNP-N-acetyl-α-D-glucosaminide], which Activity is on record?
The Activity was <0.001 U/ml.

Which Activity does the source give for O=[N+]([O-])c1ccc(O[C@H]2O[C@H](CO)[C@@H](O)[C@H](O)[C@@H]2O)cc1 [PNP-α-D-mannopyranoside] here?
Its Activity is <0.001 U/ml.

With O=[N+]([O-])c1ccc(O[C@@H]2O[C@H](CO)[C@@H](O)[C@H](O)[C@H]2O)cc1 [PNP-β-D-glucopyranoside] as the compound, how does the Activity read?
The Activity was <0.001 U/ml.
